How the values were obtained:
RSV A2 = assay: RSV plaque reduction assay; assay type: cell-based, respiratory syncytial virus (RSV); conditions: human respiratory syncytial virus, HepG2, Hep-G2 cells, mean of at least two experiments
Experimental: (§1) Compounds were subjected to RSV plaque reduction assays according to the following protocol. Plaque EC50 and cell toxicity CC50 values are a mean of at least two experiments and figures are rounded to whole units.
Hep-G2 cells (ECACC, 85011430) were passaged in flasks and seeded in 24-well plates in DMEM containing antibiotics and supplemented with 10% FBS. During inoculation and subsequent incubation, cells were cultured in DMEM containing 2% FBS. 100 plaque forming unit/well of RSV (RSV A2 ECACC, 0709161v) was mixed with eight serial dilutions of compound. Subsequently, 100 μL of the virus/compound mixtures was added to confluent Hep-G2 cell monolayers. The cells and virus/compound mixtures were incubated at 37° C. in a humidified 5% CO2 incubator for 2 h prior to removal of the inoculum and addition of 1 mL of overlay (DMEM containing 2% FBS and 0.8% CMC) containing compound dilutions. The cells and were incubated at 37° C. in a humidified 5% CO2 incubator for 2 days.
Cells were washed with PBS before adding 75/25% […] EtOH/MeOH, for 3 min. Fixative was removed and plates were washed with PBS. A pre-titrated amount of the primary antibody was added in 200 μL PBS/2% milk powder, and plates incubated for 90 min at 37° C. The plates were washed 3 times with PBS/0.05% Tween20 before addition of rabbit anti-goat horse radish peroxidase in 200 μL PBS/2% milk powder, and incubated for 1 h at 37° C. Following three wash steps with PBS/0.05% Tween20, 200 μL ready-to-use TrueBlue was added and plates were incubated at rt for 10-15 min before washing with water. After removal of water, plates were air-dried in the dark.
(§2) Plates were scanned and analysed using the Immunospot S6 Macro analyser, which is equipped with BioSpot analysis software for counting immunostained plaques (virospots). Plaque counts were used to calculate % c infection relative to the mean of the plaque count in the virus control wells for RSV. The EC50 value was calculated as 50% reduction in signal, respectively, by interpolation of inhibition curves fitted with a 4-parameter nonlinear regression with a variable slope in Dotmatics. Plaque EC50 and cell toxicity CC50 values are a mean of at least two experiments and figures are rounded to whole units.

Cell cytotoxicity (CC50) = assay type: cell-based; conditions: human; mean of at least two experiments
Source text: as §1, §2

| Compound | EC50 (RSV A2) | CC50 (Cell cytotoxicity (CC50)) |
| --- | --- | --- |
| Cc1ccc2nc(-c3cncc(F)c3)c(C(=O)N[C@H]3N=C(c4ccccc4)c4ccccc4NC3=O)n2n1 [Example 101, 2-(5-Fluoropyridin-3-yl)-6-methyl-N-[(3S)-2-oxo-5-phenyl-1,3-dihydro-1,4-benzodiazepin-3-yl]imidazo[1,2-b]pyridazine-3-carboxamide] | 81 nM | > 25000 nM |
| Cc1cncc(-c2nc3ccc(C)nn3c2C(=O)N[C@H]2N=C(c3ccccc3)c3cccc(F)c3NC2=O)c1 [Example 103, N-[(3S)-9-fluoro-2-oxo-5-phenyl-1,3-dihydro-1,4-benzodiazepin-3-yl]-6-methyl-2-(5-methylpyridin-3-yl)imidazo[1,2-b]pyridazine-3-carboxamide] | 82 nM | > 25000 nM |
| Cc1ccc2nc(-c3ccccc3)c(C(=O)N[C@H]3N=C(c4ccccc4)c4ccccc4NC3=O)n2n1 [Example 92, 6-Methyl-N-[(3S)-2-oxo-5-phenyl-1,3-dihydro-1,4-benzodiazepin-3-yl]-2-phenylimidazo[1,2-b]pyridazine-3-carboxamide] | 48 nM | > 25000 nM |
| CC(C)Oc1ccc(-c2nn3cccnc3c2C(=O)N[C@H]2N=C(c3ccccc3)c3ccccc3NC2=O)c(F)c1 [Example 15, 2-(2-Fluoro-4-propan-2-yloxyphenyl)-N-[(3S)-2-oxo-5-phenyl-1,3-dihydro-1,4-benzodiazepin-3-yl]pyrazolo[1,5-a]pyrimidine-3-carboxamide] | 91 nM | > 25000 nM |
| [2H]C([2H])([2H])Oc1ccc2nc(-c3ccccc3)c(C(=O)N[C@H]3N=C(c4ccccc4)c4ccccc4NC3=O)n2n1 [Example 112, N-[(3S)-2-oxo-5-phenyl-1,3-dihydro-1,4-benzodiazepin-3-yl]-2-phenyl-6-(trideuteriomethoxy)imidazo[1,2-b]pyridazine-3-carboxamide] | 50 nM | > 25000 nM |
| Cc1ccn2nc(-c3ccccc3F)c(C(=O)N[C@H]3N=C(c4ccccc4)c4ccccc4NC3=O)c2n1 [Example 22, 2-(2-Fluorophenyl)-5-methyl-N-[(3S)-2-oxo-5-phenyl-1,3-dihydro-1,4-benzodiazepin-3-yl]pyrazolo[1,5-a]pyrimidine-3-carboxamide] | 33 nM | > 25000 nM |
| CC(C)c1ccc(-c2nn3cccnc3c2C(=O)N[C@H]2N=C(c3ccccc3)c3ccccc3NC2=O)cn1 [Example 58, 2-(6-Propan-2-ylpyridin-3-yl)-N-[(3S)-2-oxo-5-phenyl-1,3-dihydro-1,4-benzodiazepin-3-yl]pyrazolo[1,5-a]pyrimidine-3-carboxamide] | 69 nM | > 25000 nM |
| COCCc1ccc(-c2nn3cccnc3c2C(=O)N[C@H]2N=C(c3ccccc3)c3cccc(F)c3NC2=O)cn1 [Example 51, 2-[6-(2-methoxyethyl)pyridin-3-yl]-N-[(3S)-9-fluoro-2-oxo-5-phenyl-1,3-dihydro-1,4-benzodiazepin-3-yl]pyrazolo[1,5-a]pyrimidine-3-carboxamide] | 92 nM | > 25000 nM |
| Cc1ccc2nc(-c3ccc(N4CCOCC4)nc3)c(C(=O)N[C@H]3N=C(c4ccccc4)c4ccccc4NC3=O)n2n1 [Example 104, 6-Methyl-2-(6-morpholin-4-ylpyridin-3-yl)-N-[(3S)-2-oxo-5-phenyl-1,3-dihydro-1,4-benzodiazepin-3-yl]imidazo[1,2-b]pyridazine-3-carboxamide] | 29 nM | > 25000 nM |
| CC1COCCN1c1ccc(-c2nn3cccnc3c2C(=O)N[C@H]2N=C(c3ccccc3)c3cccc(F)c3NC2=O)cn1 (stereo partly drawn) [Example 68, 2-[6-(3-Methylmorpholin-4-yl)pyridin-3-yl]-N-[(3S)-9-fluoro-2-oxo-5-phenyl-1,3-dihydro-1,4-benzodiazepin-3-yl]pyrazolo[1,5-a]pyrimidine-3-carboxamide] | 115 nM | > 25000 nM |
| O=C(N[C@H]1N=C(c2ccccc2)c2cccc(F)c2NC1=O)c1c(-c2ccccc2F)nc2ccc(N3CCC3)nn12 [Example 94, 6-(Azetidin-1-yl)-N-[(3S)-9-fluoro-2-oxo-5-phenyl-1,3-dihydro-1,4-benzodiazepin-3-yl]-2-(2-fluorophenyl)imidazo[1,2-b]pyridazine-3-carboxamide] | 50 nM | > 25000 nM |
| Cc1cc(-c2nn3cccnc3c2C(=O)N[C@H]2N=C(c3ccccc3)c3cccc(F)c3NC2=O)ccn1 [Example 52, N-[(3S)-9-fluoro-2-oxo-5-phenyl-1,3-dihydro-1,4-benzodiazepin-3-yl]-2-(2-methylpyridin-4-yl)pyrazolo[1,5-a]pyrimidine-3-carboxamide] | 103 nM | > 25000 nM |
| O=C(N[C@H]1N=C(c2ccccc2)c2cccc(F)c2NC1=O)c1c(-c2ccccc2)nc2ccc(N3C[C@H]4C[C@@H]3CO4)nn12 [Example 82, N-[(3S)-9-fluoro-2-oxo-5-phenyl-1,3-dihydro-1,4-benzodiazepin-3-yl]-6-[(1R,4R)-2-oxa-5-azabicyclo[2.2.1]heptan-5-yl]-2-phenylimidazo[1,2-b]pyridazine-3-carboxamide] | 81 nM | > 25000 nM |
| COc1cccc(-c2nn3cccnc3c2C(=O)N[C@H]2N=C(c3ccccc3)c3cccc(F)c3NC2=O)c1F [Example 9, 2-(2-Fluoro-3-methoxyphenyl)-N-[(3S)-9-fluoro-2-oxo-5-phenyl-1,3-dihydro-1,4-benzodiazepin-3-yl]pyrazolo[1,5-a]pyrimidine-3-carboxamide] | 73 nM | > 25000 nM |
| O=C(N[C@H]1N=C(c2ccccc2)c2ccccc2NC1=O)c1c(-c2cncc(C3CC3)c2)nn2cccnc12 [Example 31, 2-(5-Cyclopropylpyridin-3-yl)-N-[(3S)-2-oxo-5-phenyl-1,3-dihydro-1,4-benzodiazepin-3-yl]pyrazolo[1,5-a]pyrimidine-3-carboxamide] | 96 nM | > 25000 nM |
| CCc1ccc(-c2nc3ccc(OC)nn3c2C(=O)N[C@H]2N=C(c3ccccc3)c3cccc(F)c3NC2=O)cn1 [Example 121, 2-(6-Ethylpyridin-3-yl)-6-methoxy-N-[(3S)-9-fluoro-2-oxo-5-phenyl-1,3-dihydro-1,4-benzodiazepin-3-yl]imidazo[1,2-b]pyridazine-3-carboxamide] | 42 nM | > 25000 nM |
| CCOc1ccc(-c2nn3cccnc3c2C(=O)N[C@H]2N=C(c3ccccc3)c3cccc(F)c3NC2=O)cn1 [Example 53, 2-(6-Ethoxypyridin-3-yl)-N-[(3S)-9-fluoro-2-oxo-5-phenyl-1,3-dihydro-1,4-benzodiazepin-3-yl]pyrazolo[1,5-a]pyrimidine-3-carboxamide] | 98 nM | > 25000 nM |
| CCNc1ccc(-c2nn3cccnc3c2C(=O)N[C@H]2N=C(c3ccccc3)c3cccc(F)c3NC2=O)c(F)n1 [Example 66, 2-[6-(Ethylamino)-2-fluoropyridin-3-yl]-N-[(3S)-9-fluoro-2-oxo-5-phenyl-1,3-dihydro-1,4-benzodiazepin-3-yl]pyrazolo[1,5-a]pyrimidine-3-carboxamide] | 13 nM | > 25000 nM |
| Cc1ccc2nc(-c3cncc(F)c3)c(C(=O)N[C@H]3N=C(c4ccccc4)c4cccc(F)c4NC3=O)n2n1 [Example 102, N-[(3S)-9-fluoro-2-oxo-5-phenyl-1,3-dihydro-1,4-benzodiazepin-3-yl]-2-(5-fluoropyridin-3-yl)-6-methylimidazo[1,2-b]pyridazine-3-carboxamide] | 105 nM | > 19200 nM |
| Cc1cc(-c2nc3ccc(C)nn3c2C(=O)N[C@H]2N=C(c3ccccc3)c3cccc(F)c3NC2=O)ccn1 [Example 98, N-[(3S)-9-fluoro-2-oxo-5-phenyl-1,3-dihydro-1,4-benzodiazepin-3-yl]-6-methyl-2-(2-methylpyridin-4-yl)imidazo[1,2-b]pyridazine-3-carboxamide] | 48 nM | > 25000 nM |
| Cc1ccn2nc(-c3ccc(F)cc3F)c(C(=O)N[C@H]3N=C(c4ccccc4)c4ccccc4NC3=O)c2n1 [Example 35, 2-(2,4-Difluorophenyl)-5-methyl-N-[(3S)-2-oxo-5-phenyl-1,3-dihydro-1,4-benzodiazepin-3-yl]pyrazolo[1,5-a]pyrimidine-3-carboxamide] | 29 nM | > 25000 nM |
| O=C(N[C@H]1N=C(c2ccccc2)c2cccc(F)c2NC1=O)c1c(-c2ccccc2F)nc2ccc(N3CCOCC3)nn12 [Example 79, N-[(3S)-9-Fluoro-2-oxo-5-phenyl-1,3-dihydro-1,4-benzodiazepin-3-yl]-2-(2-fluorophenyl)-6-morpholin-4-ylimidazo[1,2-b]pyridazine-3-carboxamide] | 26 nM | > 25000 nM |

From US11634425B2, “Pharmaceutical compounds” (priority 2019, dated 2023)
